The experiment has as its target T1, SIRT1 (Homo sapiens, UniProt Q96EB6).
T1 sequence (Q96EB6 1-747): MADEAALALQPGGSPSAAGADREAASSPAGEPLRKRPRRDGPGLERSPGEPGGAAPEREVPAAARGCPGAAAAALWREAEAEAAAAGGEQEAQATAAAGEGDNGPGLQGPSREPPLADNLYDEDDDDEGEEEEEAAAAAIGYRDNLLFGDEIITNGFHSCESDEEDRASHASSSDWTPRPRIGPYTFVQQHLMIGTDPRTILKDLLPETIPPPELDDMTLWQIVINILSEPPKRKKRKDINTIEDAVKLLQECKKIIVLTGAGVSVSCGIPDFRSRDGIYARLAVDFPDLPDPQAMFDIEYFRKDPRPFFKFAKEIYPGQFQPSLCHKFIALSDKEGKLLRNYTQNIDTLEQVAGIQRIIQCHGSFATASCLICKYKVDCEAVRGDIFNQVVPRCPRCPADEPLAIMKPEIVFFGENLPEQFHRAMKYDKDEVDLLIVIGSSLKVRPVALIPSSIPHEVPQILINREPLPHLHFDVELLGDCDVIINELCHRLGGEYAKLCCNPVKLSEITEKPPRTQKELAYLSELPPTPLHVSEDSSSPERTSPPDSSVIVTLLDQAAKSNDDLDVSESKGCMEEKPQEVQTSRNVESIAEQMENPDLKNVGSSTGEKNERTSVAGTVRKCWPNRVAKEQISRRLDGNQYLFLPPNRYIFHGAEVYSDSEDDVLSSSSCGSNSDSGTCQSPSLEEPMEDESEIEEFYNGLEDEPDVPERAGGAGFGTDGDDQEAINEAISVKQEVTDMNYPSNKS
Put plainly: SIRT1 mass spectrometry (MS) based deacetylation assay. For FOLD ACT. MS: test concentration or dose not given here. The experiment is classed as biochemical. The settings on record: for pEC50: SIRT1 activation, mass spectrometry assay, read-out: ED50 MS ASSAY; for FOLD ACT. MS: fold activation of SIRT1, mass spectrometry assay.

The values that follow come from patent publication US8044198B2, “Sirtuin modulating compounds” (Sirtris Pharmaceuticals, Inc., priority 2005, dated 2011).

Structures are written as SMILES. pEC50: −log10 of the molar value. Where only a bound is given, the exact number is not on record here.

On to `COc1cc(C(=O)Nc2ccccc2-c2cn3ccccc3n2)cc(OC)c1OC` [Compound 267], for which the pEC50 was above 5.30 and the “FOLD ACT. MS” value was “B (B (Fold Activation <250%))”.

With `CN(C)c1cccc(C(=O)Nc2ccccc2-c2cn3ccccc3n2)c1` [Compound 268], the pEC50 was above 5.30 and the “FOLD ACT. MS” value is on record as “B (B (Fold Activation <250%))”.

As to `COc1ccc(C(=O)Nc2ccccc2-c2cn3cc(CN4CCNCC4)sc3n2)cc1OC` [Compound 270], the pEC50 was 4.30 to 5.30 and the “FOLD ACT. MS” value is recorded as “A (A (Fold activation >250%))”.

As to `COc1cc(C(=O)Nc2ccccc2-c2cn3cc(CN4CCNCC4)sc3n2)cc(OC)c1OC` [Compound 271], the pEC50 is above 5.30 and the “FOLD ACT. MS” value is “A (A (Fold activation >250%))”.

With `COc1ccc(C(=O)Nc2cccc(-c3nc4cnccc4s3)c2)c(OC)c1` [Compound 272], the pEC50 is above 5.30 and the “FOLD ACT. MS” value is listed as “B (B (Fold Activation <250%))”.

For `COc1cc(C(=O)Nc2cccc(-c3nc4cnccc4s3)c2)cc(OC)c1OC` [Compound 273], the pEC50 is 4.30 to 5.30 and the “FOLD ACT. MS” value is on record as “A (A (Fold activation >250%))”.

Consider `COc1ccc(C(=O)Nc2ncccc2-c2nc3ccccc3[nH]2)cc1OC` [Compound 276], for which the pEC50 was above 5.30 and the “FOLD ACT. MS” value is listed as “B (B (Fold Activation <250%))”.

Consider `CC(=O)Nc1ccc(S(=O)(=O)Nc2cccc(-c3nc4ccncc4s3)c2)cc1` [Compound 288], for which the pEC50 is 4.30 to 5.30 and the “FOLD ACT. MS” value is listed as “B (B (Fold Activation <250%))”.

As for `COc1ccc(S(=O)(=O)Nc2cccc(-c3nc4ccncc4s3)c2)cc1OC` [Compound 289], the pEC50 was 4.30 to 5.30 and the “FOLD ACT. MS” value was “B (B (Fold Activation <250%))”.

With `COc1cc(C(=O)N(C)c2ccccc2-c2nc3ncccc3o2)cc(OC)c1OC` [Compound 292, 3,4,5-Trimethoxy-N-methyl-N-(2-oxazolo[4,5-b]pyridin-2-yl-phenyl)-benzamide], the pEC50 was below 3.82.

Regarding `COc1cc(C(=O)Nc2ccccc2-c2nc3ccccc3[nH]2)cc(OC)c1OC` [Compound 293], the pEC50 was above 5.30 and the “FOLD ACT. MS” value is given as “A (A (Fold activation >250%))”.

Turning to `COc1ccc(C(=O)Nc2ccc(-c3nc4ccccc4[nH]3)cc2)cc1OC` [Compound 294], the pEC50 is above 5.30 and the “FOLD ACT. MS” value is reported as “B (B (Fold Activation <250%))”.

Take `COc1ccc(C(=O)Nc2cccc(-c3nc4cnccc4o3)c2)c(OC)c1` [Compound 296]: the pEC50 was 4.30 to 5.30 and the “FOLD ACT. MS” value is reported as “B (B (Fold Activation <250%))”.

`COc1cc(OC)cc(C(=O)Nc2cccc(-c3nc4cnccc4o3)c2)c1` [Compound 297]: the pEC50 was 4.30 to 5.30 and the “FOLD ACT. MS” value is recorded as “B (B (Fold Activation <250%))”.

On to `COc1cc(C(=O)Nc2cccc(-c3nc4cnccc4o3)c2)cc(OC)c1OC` [Compound 298], for which the pEC50 was 4.30 to 5.30 and the “FOLD ACT. MS” value was “B (B (Fold Activation <250%))”.

Turning to `CN(C)c1ccc(C(=O)Nc2cccc(-c3nc4cnccc4o3)c2)cc1` [Compound 299], the pEC50 was 4.30 to 5.30 and the “FOLD ACT. MS” value is “B (B (Fold Activation <250%))”.

For the compound `Cc1cc(C(=O)Nc2cccc(-c3nc4ccncc4s3)c2)no1` [Compound 304], the pEC50 is above 5.30 and the “FOLD ACT. MS” value is recorded as “B (B (Fold Activation <250%))”.

Consider `O=C(Nc1cccc(-c2nc3ccncc3s2)c1)c1ccc(Oc2ccccc2)nc1` [Compound 306], for which the pEC50 was 4.30 to 5.30 and the “FOLD ACT. MS” value is listed as “B (B (Fold Activation <250%))”.

As to `O=C(Nc1cccc(-c2nc3ccncc3s2)c1)c1ccc2ccccc2n1` [Compound 307], the pEC50 is above 5.30 and the “FOLD ACT. MS” value was “A (A (Fold activation >250%))”.

As to `CN(C)c1cccc(C(=O)Nc2cccc(-c3nc4cnccc4o3)c2)c1` [Compound 311], the pEC50 is 4.30 to 5.30 and the “FOLD ACT. MS” value is given as “B (B (Fold Activation <250%))”.

For the compound `COc1cc(C(=O)Nc2ccccc2-c2nc3ccccc3n2C)cc(OC)c1OC` [Compound 313], the pEC50 is 4.30 to 5.30 and the “FOLD ACT. MS” value was “B (B (Fold Activation <250%))”.

Turning to `COc1ccc(C(=O)Nc2ccccc2-c2nc3ccccc3n2C)cc1OC` [Compound 314], the pEC50 was 4.30 to 5.30 and the “FOLD ACT. MS” value was “B (B (Fold Activation <250%))”.

As to `COc1ccc(C(=O)Nc2ccccc2-c2nc3cnccc3s2)c(OC)c1` [Compound 317], the pEC50 is above 5.30 and the “FOLD ACT. MS” value is reported as “B (B (Fold Activation <250%))”.

As for `COc1cc(OC)cc(C(=O)Nc2ccccc2-c2nc3cnccc3s2)c1` [Compound 318], the pEC50 is 4.30 to 5.30 and the “FOLD ACT. MS” value is reported as “B (B (Fold Activation <250%))”.

`COc1cc(C(=O)Nc2ccccc2-c2nc3cnccc3s2)cc(OC)c1OC` [Compound 319]: the pEC50 is above 5.30 and the “FOLD ACT. MS” value was “B (B (Fold Activation <250%))”.

For the compound `CN(C)c1ccc(C(=O)Nc2ccccc2-c2nc3cnccc3s2)cc1` [Compound 320], the pEC50 is above 5.30 and the “FOLD ACT. MS” value is “B (B (Fold Activation <250%))”.

As for `CN(C)c1cccc(C(=O)Nc2ccccc2-c2nc3cnccc3s2)c1` [Compound 321], the pEC50 was above 5.30 and the “FOLD ACT. MS” value is “B (B (Fold Activation <250%))”.

Regarding `COc1cc(OC)cc(C(=O)Nc2ccc(-c3nc4cnccc4s3)cc2)c1` [Compound 323], the pEC50 is 4.30 to 5.30 and the “FOLD ACT. MS” value is given as “B (B (Fold Activation <250%))”.

For the compound `COc1ccc(C(=O)Nc2ccccc2-c2cn3c(CN4CCNCC4)csc3n2)c(OC)c1` [Compound 326], the pEC50 was 4.30 to 5.30 and the “FOLD ACT. MS” value is reported as “B (B (Fold Activation <250%))”.

For the compound `CN(C)c1cccc(C(=O)Nc2ccccc2-c2cn3c(CN4CCNCC4)csc3n2)c1` [Compound 327], the pEC50 was 4.30 to 5.30 and the “FOLD ACT. MS” value was “A (A (Fold activation >250%))”.

With `O=C(Nc1ccccc1-c1cn2c(CN3CCNCC3)csc2n1)c1ccccc1` [Compound 328], the pEC50 was 4.00 to 4.29 and the “FOLD ACT. MS” value was “A (A (Fold activation >250%))”.

As to `O=C(Nc1ccccc1-c1cn2c(CN3CCNCC3)csc2n1)c1ccc2c(c1)OCO2` [Compound 329], the pEC50 is 4.30 to 5.30 and the “FOLD ACT. MS” value is given as “A (A (Fold activation >250%))”.

For `N#Cc1cccc(C(=O)Nc2ccccc2-c2cn3c(CN4CCNCC4)csc3n2)c1` [Compound 330], the pEC50 was 4.30 to 5.30 and the “FOLD ACT. MS” value is “A (A (Fold activation >250%))”.

For the compound `COc1ccc(C(=O)Nc2cccc(-c3cccnc3)c2)c(OC)c1` [Compound 331], the pEC50 is 4.30 to 5.30 and the “FOLD ACT. MS” value is given as “B (B (Fold Activation <250%))”.

As for `COc1ccc(C(=O)Nc2cccc(-c3cccnc3)c2)cc1OC` [Compound 332], the pEC50 was 4.30 to 5.30 and the “FOLD ACT. MS” value is “B (B (Fold Activation <250%))”.

Regarding `COc1cc(C(=O)Nc2cccc(-c3cccnc3)c2)cc(OC)c1OC` [Compound 333], the pEC50 was 4.30 to 5.30 and the “FOLD ACT. MS” value was “B (B (Fold Activation <250%))”.

With `COc1ccc(C(=O)Nc2ccccc2-c2cccs2)c(OC)c1` [Compound 334], the pEC50 is 4.30 to 5.30 and the “FOLD ACT. MS” value is “B (B (Fold Activation <250%))”.

For the compound `COc1ccc(C(=O)Nc2ccccc2-c2cccs2)cc1OC` [Compound 335], the pEC50 was 4.30 to 5.30 and the “FOLD ACT. MS” value was “B (B (Fold Activation <250%))”.

As for `O=C(Nc1ccccc1-c1cn2c(CN3CCNCC3)csc2n1)c1ccc2occc2c1` [Compound 338], the pEC50 was 4.30 to 5.30 and the “FOLD ACT. MS” value was “A (A (Fold activation >250%))”.

As to `COc1cc(C(=O)Nc2ccc(-c3nc4ccncc4o3)cc2)cc(OC)c1OC` [Compound 341], the pEC50 was above 5.30 and the “FOLD ACT. MS” value is listed as “B (B (Fold Activation <250%))”.

For `COc1ccc(C(=O)Nc2cccc(-c3nc4cnccc4o3)c2)c(OC)c1OC` [Compound 343], the pEC50 is 4.30 to 5.30 and the “FOLD ACT. MS” value is reported as “B (B (Fold Activation <250%))”.

For the compound `COc1ccc(C(=O)Nc2cccc(-c3nc4cnccc4o3)c2)cc1OC` [Compound 344], the pEC50 is above 5.30 and the “FOLD ACT. MS” value is reported as “B (B (Fold Activation <250%))”.

Turning to `COc1cc(C(=O)Nc2ccc(-c3nc4cnccc4o3)cc2)cc(OC)c1OC` [Compound 347], the pEC50 was above 5.30 and the “FOLD ACT. MS” value is given as “B (B (Fold Activation <250%))”.

Consider `COc1ccc(C(=O)Nc2ccccc2-c2nc3ccccn3c2CN(C)C)cc1OC` [Compound 350], for which the pEC50 was 4.00 to 4.29 and the “FOLD ACT. MS” value was “B (B (Fold Activation <250%))”.

`COc1cc(C(=O)Nc2ccccc2-c2nc3ccccn3c2CN(C)C)cc(OC)c1OC` [Compound 351]: the pEC50 is 4.30 to 5.30 and the “FOLD ACT. MS” value is on record as “B (B (Fold Activation <250%))”.

Consider `COc1cc(C(=O)Nc2ccccc2-c2nc3ccccn3c2CN2CCNCC2)cc(OC)c1OC` [Compound 362], for which the pEC50 is 4.00 to 4.29 and the “FOLD ACT. MS” value is given as “B (B (Fold Activation <250%))”.
